Experimental data: paper PMC10175918 (Communications Biology, 2023)
Read-outs that look alike come from different tables or passages of the source.

Assays:
Experiment in all cases: TGFα-shedding assay-based GPCR screening with chimeric Gα subunit proteins
Format in all cases: cell-based
348 GPCRs [1] = biological target: T1, 348 GPCRs (Homo sapiens, UniProt Q99680); details: 10µM, Favipiravir 100μM
T1 construct: expressed in transfected cells; host or cells: HEK293A

348 GPCRs [2] = biological target: T2, 348 GPCRs (Homo sapiens, UniProt P46092); details: 10µM, Favipiravir 100μM
T2 construct: expressed in transfected cells; host or cells: HEK293A
T2 sequence (P46092 1-362): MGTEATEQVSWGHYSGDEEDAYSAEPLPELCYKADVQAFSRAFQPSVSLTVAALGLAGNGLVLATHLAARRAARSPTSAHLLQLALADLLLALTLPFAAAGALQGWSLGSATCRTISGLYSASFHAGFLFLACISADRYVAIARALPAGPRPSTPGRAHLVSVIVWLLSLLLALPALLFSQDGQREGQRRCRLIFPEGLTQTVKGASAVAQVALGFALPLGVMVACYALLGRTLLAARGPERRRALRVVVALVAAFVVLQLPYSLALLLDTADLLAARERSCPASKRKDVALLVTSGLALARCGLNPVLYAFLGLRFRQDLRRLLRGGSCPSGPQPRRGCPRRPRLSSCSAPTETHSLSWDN

348 GPCRs [3] = biological target: T3, 348 GPCRs (Homo sapiens, UniProt Q9NYW1); details: 10µM, Favipiravir 100μM
T3 construct: expressed in transfected cells; host or cells: HEK293A
T3 sequence (Q9NYW1 1-312): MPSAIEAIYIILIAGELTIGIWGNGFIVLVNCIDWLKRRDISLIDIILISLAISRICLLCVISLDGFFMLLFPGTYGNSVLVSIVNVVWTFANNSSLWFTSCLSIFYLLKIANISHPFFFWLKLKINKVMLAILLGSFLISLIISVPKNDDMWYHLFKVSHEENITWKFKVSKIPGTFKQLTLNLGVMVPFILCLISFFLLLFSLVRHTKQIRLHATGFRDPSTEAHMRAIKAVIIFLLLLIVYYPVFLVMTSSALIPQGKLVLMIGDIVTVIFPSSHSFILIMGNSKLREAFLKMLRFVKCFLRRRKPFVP

348 GPCRs [4] = biological target: T4, 348 GPCRs (Homo sapiens, UniProt Q96RI0); details: 10µM, Favipiravir 100μM
T4 construct: expressed in transfected cells; host or cells: HEK293A
T4 sequence (Q96RI0 18-385): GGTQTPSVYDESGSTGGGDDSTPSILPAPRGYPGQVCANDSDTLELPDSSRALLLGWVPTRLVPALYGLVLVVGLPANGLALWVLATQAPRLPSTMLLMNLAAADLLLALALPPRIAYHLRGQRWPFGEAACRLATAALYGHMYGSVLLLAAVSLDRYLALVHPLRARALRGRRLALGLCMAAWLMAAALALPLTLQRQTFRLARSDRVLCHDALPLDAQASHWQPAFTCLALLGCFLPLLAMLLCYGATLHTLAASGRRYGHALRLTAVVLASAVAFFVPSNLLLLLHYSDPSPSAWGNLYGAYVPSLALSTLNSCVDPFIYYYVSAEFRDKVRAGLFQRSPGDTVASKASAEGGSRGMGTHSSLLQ

348 GPCRs [5] = biological target: T5, 348 GPCRs (Homo sapiens, UniProt Q9NYW4); details: 10µM, Favipiravir 100μM
T5 construct: expressed in transfected cells; host or cells: HEK293A
T5 sequence (Q9NYW4 1-299): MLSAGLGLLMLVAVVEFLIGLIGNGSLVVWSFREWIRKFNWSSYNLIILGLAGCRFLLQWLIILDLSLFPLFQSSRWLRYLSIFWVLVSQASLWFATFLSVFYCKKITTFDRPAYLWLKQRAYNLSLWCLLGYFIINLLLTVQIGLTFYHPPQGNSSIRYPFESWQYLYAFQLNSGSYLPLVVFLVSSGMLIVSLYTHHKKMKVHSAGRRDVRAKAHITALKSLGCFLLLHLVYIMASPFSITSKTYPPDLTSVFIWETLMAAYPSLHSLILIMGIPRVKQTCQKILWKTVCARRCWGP

348 GPCRs [6] = biological target: T6, 348 GPCRs (Homo sapiens, UniProt P46091)
T6 construct: expressed in transfected cells; host or cells: HEK293A
T6 sequence (P46091 1-355): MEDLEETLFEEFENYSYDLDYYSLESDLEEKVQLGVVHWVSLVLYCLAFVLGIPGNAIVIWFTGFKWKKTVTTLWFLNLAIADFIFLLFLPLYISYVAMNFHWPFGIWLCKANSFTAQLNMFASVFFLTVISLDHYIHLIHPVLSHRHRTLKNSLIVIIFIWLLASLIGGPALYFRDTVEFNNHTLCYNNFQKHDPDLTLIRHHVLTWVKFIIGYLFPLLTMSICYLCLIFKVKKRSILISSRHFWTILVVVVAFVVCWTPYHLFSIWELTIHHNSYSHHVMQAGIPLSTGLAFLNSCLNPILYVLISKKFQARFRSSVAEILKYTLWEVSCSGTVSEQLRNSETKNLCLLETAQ

348 GPCRs [7] = biological target: T7, 348 GPCRs (Homo sapiens, UniProt O00398)
T7 construct: expressed in transfected cells; host or cells: HEK293A

348 GPCRs [8] = biological target: T8, 348 GPCRs (Homo sapiens, UniProt P41586); details: 10µM, Favipiravir 100μM
T8 construct: expressed in transfected cells; host or cells: HEK293A
T8 sequence (P41586 21-468): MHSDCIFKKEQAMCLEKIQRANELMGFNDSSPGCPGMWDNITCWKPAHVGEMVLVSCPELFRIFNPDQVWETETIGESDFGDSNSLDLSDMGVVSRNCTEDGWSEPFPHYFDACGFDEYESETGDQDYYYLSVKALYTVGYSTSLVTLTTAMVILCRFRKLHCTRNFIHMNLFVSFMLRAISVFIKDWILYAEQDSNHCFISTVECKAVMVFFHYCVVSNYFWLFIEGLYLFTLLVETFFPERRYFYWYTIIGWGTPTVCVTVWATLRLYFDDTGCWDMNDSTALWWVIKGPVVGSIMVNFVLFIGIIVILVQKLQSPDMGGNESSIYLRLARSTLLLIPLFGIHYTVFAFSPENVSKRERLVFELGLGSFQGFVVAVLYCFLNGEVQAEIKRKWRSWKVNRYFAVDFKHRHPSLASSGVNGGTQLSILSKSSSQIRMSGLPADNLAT

[9] = GPR22 (G Protein-Coupled Receptor 22), read-out: % GPCR activation compared to TPA
[10] = CCR10 (C-C motif chemokine receptor 10), read-out: % GPCR activation compared to TPA
[11] = TAS2R9 (taste receptor, type 2, member 9), read-out: % GPCR activation compared to TPA
[12] = F2RL3 (coagulation factor II (thrombin) receptor-like 3), read-out: % GPCR activation compared to TPA
[13] = TAS2R5 (taste receptor, type 2, member 5), read-out: % GPCR activation compared to TPA
[14] = GPCR GPR1 (G protein-coupled receptor 1), read-out: % GPCR activation compared to TPA
[15] = GPCR P2RY10 (purinergic receptor P2Y, G-protein coupled, 10), read-out: % GPCR activation compared to TPA
[16] = ADCYAP1 (ADCYAP receptor type I), read-out: % GPCR activation compared to TPA
[17] = read-out: % GPCR activation compared to TPA, GPR22 (G Protein-Coupled Receptor 22)
[18] = read-out: % GPCR activation compared to TPA, CCR10 (C-C motif chemokine receptor 10)
[19] = read-out: % GPCR activation compared to TPA, TAS2R9 (taste receptor, type 2, member 9)
[20] = read-out: % GPCR activation compared to TPA, F2RL3 (coagulation factor II (thrombin) receptor-like 3)
[21] = read-out: % GPCR activation compared to TPA, TAS2R5 (taste receptor, type 2, member 5)
[22] = read-out: % GPCR activation compared to TPA, GPCR GPR1 (G protein-coupled receptor 1)
[23] = read-out: % GPCR activation compared to TPA, GPCR P2RY10 (purinergic receptor P2Y, G-protein coupled, 10)
[24] = read-out: % GPCR activation compared to TPA, ADCYAP1 (ADCYAP receptor type I)

T7 sequence (O00398 whole entry): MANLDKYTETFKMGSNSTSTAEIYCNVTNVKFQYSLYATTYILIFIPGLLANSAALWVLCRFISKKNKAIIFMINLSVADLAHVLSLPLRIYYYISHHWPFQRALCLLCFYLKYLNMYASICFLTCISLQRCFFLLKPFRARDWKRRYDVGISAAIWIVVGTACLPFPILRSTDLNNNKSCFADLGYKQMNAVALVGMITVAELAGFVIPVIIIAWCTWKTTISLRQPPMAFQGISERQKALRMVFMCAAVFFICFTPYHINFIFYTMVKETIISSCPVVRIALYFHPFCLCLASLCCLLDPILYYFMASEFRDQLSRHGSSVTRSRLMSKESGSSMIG
T1 sequence (Q99680 whole entry): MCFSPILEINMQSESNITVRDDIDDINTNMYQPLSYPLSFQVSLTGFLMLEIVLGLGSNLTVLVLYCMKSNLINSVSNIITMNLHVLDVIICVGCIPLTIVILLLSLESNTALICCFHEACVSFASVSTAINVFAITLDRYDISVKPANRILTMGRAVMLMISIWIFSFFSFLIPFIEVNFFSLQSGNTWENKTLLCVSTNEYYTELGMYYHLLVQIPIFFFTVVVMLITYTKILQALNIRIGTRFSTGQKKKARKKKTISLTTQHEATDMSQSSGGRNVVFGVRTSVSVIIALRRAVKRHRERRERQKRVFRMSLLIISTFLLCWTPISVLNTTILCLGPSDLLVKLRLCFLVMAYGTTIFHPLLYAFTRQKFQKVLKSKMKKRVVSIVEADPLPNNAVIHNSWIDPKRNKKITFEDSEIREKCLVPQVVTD

| SMILES | activation at 100 µM (348 GPCRs [1]; [9]) | activation at 100 µM (348 GPCRs [2]; [10]) | activation at 10 µM (348 GPCRs [3]; [11]) | activation at 10 µM (348 GPCRs [4]; [12]) | activation at 100 µM (348 GPCRs [5]; [13]) | activation at 10 µM (348 GPCRs [6]; [14]) | activation at 10 µM (348 GPCRs [7]; [15]) | activation at 100 µM (348 GPCRs [8]; [16]) | activation at 100 µM (348 GPCRs [1]; [17]) | activation at 100 µM (348 GPCRs [2]; [18]) | activation at 10 µM (348 GPCRs [3]; [19]) | activation at 10 µM (348 GPCRs [4]; [20]) | activation at 100 µM (348 GPCRs [5]; [21]) | activation at 10 µM (348 GPCRs [6]; [22]) | activation at 10 µM (348 GPCRs [7]; [23]) | activation at 100 µM (348 GPCRs [8]; [24]) | activation at 100 µM (348 GPCRs [6]; GPCR GPR1 (G protein-coupled receptor 1), 100μM, read-out: % GPCR activation compared to TPA) | activation at 100 µM (348 GPCRs [7]; GPCR P2RY10 (purinergic receptor P2Y, G-protein coupled, 10), 100μM, read-out: % GPCR activation compared to TPA) |
| --- | --- | --- | --- | --- | --- | --- | --- | --- | --- | --- | --- | --- | --- | --- | --- | --- | --- | --- |
| N#C[C@@]1(c2ccc3c(N)ncnn23)O[C@H](CO)[C@@H](O)[C@H]1O [GS441524] | 0.701% | -6.97% | 0.686% | 0.403% | 0.212% | -3.33% | -1.36% | 3.21% | – | – | – | – | – | – | – | – | – | – |
| CC(C)OC(=O)[C@H](C)N[P@](=O)(OC[C@H]1O[C@@H](n2ccc(=O)[nH]c2=O)[C@](C)(F)[C@@H]1O)Oc1ccccc1 [sofosbuvir] | – | – | – | – | – | – | – | – | 0.408% | 0.131% | -0.791% | 1.49% | -1.2% | -2.4% | 0.334% | -0.225% | – | – |
| CCC(CC)COC(=O)[C@H](C)N[P@](=O)(OC[C@H]1O[C@@](C#N)(c2ccc3c(N)ncnn23)[C@H](O)[C@@H]1O)Oc1ccccc1 [remdesivir] | – | – | – | – | – | – | – | – | -1.09% | -7.76% | 1.69% | -0.777% | 3.92% | 2.72% | -1.53% | 2.11% | – | – |
| CC(C)C(=O)OC[C@H]1O[C@@H](n2ccc(NO)nc2=O)[C@H](O)[C@@H]1O [molnupiravir] | -2.13% | 0.0221% | 0.0718% | 2.35% | -0.247% | -1.07% | -1.61% | -0.597% | – | – | – | – | – | – | – | – | – | – |
| NC(=O)c1nc(F)cnc1O [favipiravir, 6-fluoro-3-hydroxy-2-pyrazinecarboxamide] | -0.704% | -6.03% | 2.37% | -2.75% | 2.49% | – | – | -0.29% | – | – | – | – | – | – | – | – | -1.92% | -0.745% |
